{"source": "patent US20160168616A1", "about": "“PRODUCTION OF NONTOXIC RAW MATERIALS AND FINISHED PRODUCTS TESTED BY MEANS OF AN INNOVATIVE PROBIOTIC BACTERIA BASED METHOD FOR DETERMINING TOXICITY TOWARDS PROBIOTIC BACTERIA” (PROBIOTICAL S.P.A., priority 2013, published 2016)", "test_system": "probiotic bacterial strains indicated in Table 1 with the numbers 17, 22, 41, 60, 74, 98, 121, 145, 174 and 182", "experiment": "toxicity test of raw materials with the method of the invention (plate count, % mortality)", "assay_type": "cell-based", "conditions": "raw material test; strains 17, 22, 41, 60, 74, 98, 121, 145, 174 and 182 of Table 1 as toxicity markers", "procedure": "The method comprises a step in which the probiotic bacterial strain (toxicity marker) is placed in contact with a raw material to be tested using a quantity of raw material equal to that normally used in the formulation.\nIn practical terms, a first sample is prepared which comprises the probiotic bacterial strain (toxicity marker), the optimal culture substrate for said probiotic bacterial strain and the raw material to be tested.\nThen a second sample (internal reference) is prepared which comprises the same probiotic bacterial strain used in said first sample (toxicity marker) and only the optimal culture substrate (without the raw material to be tested). […]\nThe ratio between the bacterial count (number of cells counted on the plate) of said first sample and the bacterial count (number of cells on the plate) of said second sample provides a number less than 1, which, if expressed as a percentage, provides a count of the bacteria which survived in contact with the raw material and, therefore, also expresses the % mortality induced by said raw material in the probiotic bacterial strains used as a marker. […]\n8.11 incubate the plates upside down at 37±1° C. for 72 h under anaerobic conditions (Gas-Pak+anaerobic kit). […] The result will be expressed as CFU, i.e. Colony Forming Units. […]", "data": [{"smiles": "O=C(O)CC(O)(CC(=O)O)C(=O)O", "note": "[Citric Acid]", "values": [{"measurement": "mortality found", "value": 2, "unit": "%"}]}]}
